ChEMBL document CHEMBL4325849, “Identification of potential antivirulence agents by substitution-oriented screening for inhibitors of Streptococcus pyogenes sortase A” (Eur J Med Chem, 2019)
pIC50, pKd: −log10 of the molar value. Calls of active or inactive are those of the source. No cut-off for these calls is given here.

Columns and labels:
Streptococcus pyogenes [1] = assay: Inhibition of Streptococcus pyogenes SrtA deltaN81 mutant expressed in Escherichia coli BL21(DE3) at 100 uM using Abz-LPETA-Dap(Dnp) as substrate preincubated for 10 mins followed by substrate addition measured every min for 2.5 hrs by fluorimetric assay relative to control
Streptococcus pyogenes [2] = assay: Inhibition of Streptococcus pyogenes SrtA deltaN81 mutant expressed in Escherichia coli BL21(DE3) at 10 uM using Abz-LPETA-Dap(Dnp) as substrate preincubated for 10 mins followed by substrate addition measured every min for 2.5 hrs by fluorimetric assay relative to control
Streptococcus pyogenes [3] = assay: (§1) Inhibition of Streptococcus pyogenes SrtA deltaN81 mutant expressed in Escherichia coli BL21(DE3) using Abz-LPETA-Dap(Dnp) as substrate preincubated for 10 mins followed by substrate addition measured every min for 2.5 hrs by fluorimetric assay
Streptococcus pyogenes [4] = assay: Mixed-type inhibition of Streptococcus pyogenes SrtA deltaN81 mutant expressed in Escherichia coli BL21(DE3) at 5 to 10 uM using Abz-LPETA-Dap(Dnp) as substrate preincubated for 10 mins followed by substrate addition measured every min for 2 hrs by fluorimetric assay relative to control
[5] = Binding affinity to NT-647 labeled Streptococcus pyogenes His-tagged SrtA deltaN81 mutant expressed in Escherichia coli BL21(DE3) by microscale thermophoresis method
[6] = Solubility of the compound; type: physicochemical
Streptococcus pyogenes [7] = assay: Induction of aggregation of NT-647 labeled Streptococcus pyogenes His-tagged SrtA deltaN81 mutant expressed in Escherichia coli BL21(DE3) by microscale thermophoresis method
[8] = as §1
Staphylococcus aureus = assay: Inhibition of […] SrtA deltaN59 mutant expressed in Escherichia coli BL21(DE3) at 100 uM using Abz-LPETG-Dap(Dnp) as substrate preincubated for 10 mins followed by substrate addition measured every min for 2.5 hrs by fluorimetric assay

SMILES	inhibition (Streptococcus pyogenes [1]) [%]	also measured
CCOC(=O)c1[nH]c2cc(Cl)ccc2c1/C=N/c1ccccc1	3.7	
Nc1[nH]c2ccccc2c1C(=O)NCCc1ccc(Cl)cc1Cl	54.8	inhibition (Streptococcus pyogenes [2]): > 50%
O=C(O)Cc1c[nH]c2ccccc12	8.6	
CCC(=O)N1CCN(c2ncccn2)CC1	11.6	
NC(Cc1c[nH]c2ccccc12)C(=O)O (stereo not drawn)	5.5	
O=C(O)c1[nH]c2cc(Cl)ccc2c1C(=O)Cc1ccc(Cl)cc1	28.3	
O=C(O)c1cc2ccccc2s1	4.5	
COc1ccc2[nH]cc(CCN)c2c1	-1.9	
O=C(c1cccs1)N1CCN(c2ncccn2)CC1	10.2	
CCOC(=O)c1cc2ccccc2[nH]1	16.4	
O=C(Nc1[nH]c2ccccc2c1C(=O)N1CCOCC1)c1ccccc1		inhibition (Streptococcus pyogenes [3]): inactive
COc1ccc(CCNC(=O)c2cnn(-c3ccccc3)c2N)cc1OC	4.6	
CCOC(=O)c1cc(-c2ccccc2)c2cccc(O)c2c1	60.2	inhibition (Streptococcus pyogenes [2]): > 50%
CCOC(=O)c1cc2ccc(Cl)cc2[nH]1	15	
O=C(O)c1cccs1	1.4	
Nc1[nH]c2cc(Cl)ccc2c1C(=O)NCCc1ccc(Cl)cc1	91.9	inhibition (Streptococcus pyogenes [2]): > 50%
CCCN1CCOC2c3c(ccc4[nH]ccc34)OCC21 (stereo not drawn)	13.4	
Nc1c(C(=O)N2CCOCC2)cnn1Cc1ccccc1	1	
Nc1[nH]c2ccccc2c1C(=O)N1CCCCC1		inhibition (Streptococcus pyogenes [3]): inactive
Nc1[nH]c2cc(Cl)ccc2c1C(=O)N1CCOCC1	91.6	inhibition (Streptococcus pyogenes [4]): Active; pKd [5]: 4.22; solubility [6]: Soluble; inhibition (Streptococcus pyogenes [2]): > 50%; Activity (Streptococcus pyogenes [7]): inactive; pIC50 [8]: 5.00; inhibition (Staphylococcus aureus): inactive
COC(=O)c1ccnc(C(=O)OC)c1	5.5	
CCOC(=O)c1[nH]c2cc(Cl)ccc2c1C(=O)CCC(=O)OC	23.8	
CC(C(=O)O)c1ccc2cc(OS(C)(=O)=O)ccc2c1 (stereo not drawn)	17	
Nc1ncccn1	7.5	
N#CCC(=O)c1c[nH]c2cc(F)ccc12	10.7	

SMILES	inhibition (Streptococcus pyogenes [1]) [%]	also measured
O=Cc1nc2ccc(Cl)cc2[nH]1	19.9	
COc1cccc2c3c(ccc12)NC(=O)CC3	54.2	inhibition (Streptococcus pyogenes [2]): > 50%
Cc1ccc(S(=O)(=O)/N=C/c2cc3ccc(Cl)cc3[nH]2)cc1	8.8	
O=Cc1c[nH]c2cc(Cl)ccc12	6.4	
CCOC(=O)c1[nH]c2cc(Cl)ccc2c1C(=O)O	26.3	
O=C(O)c1cc2cc(Cl)ccc2[nH]1	9.1	
COc1ccc(C(O)c2[nH]c3ccccc3c2CCN)cc1 (stereo not drawn)	60.8	inhibition (Streptococcus pyogenes [2]): > 50%
CC(=O)NCCc1c[nH]cn1	3.8	
O=Cc1ccc[nH]1	3.2	
O=c1c2cc3cc(Cl)ccc3nc2ncn1N1CCCCC1	42.2	
O=C(O)c1cc2ccccc2[nH]1	4.5	
COC(=O)c1cc2ccc(Cl)cc2[nH]1	28.2	
O=C1CCN2c3ccccc3Sc3ccc(Cl)c1c32	11.1	
Nc1[nH]c2ccccc2c1C(=O)NC1CC1	29.2	
CCC(=O)c1cccs1	0.1	
O=c1cc[nH]c(=O)[nH]1	2.7	
Nc1ncncc1C=O	20.7	
O=C(O)c1ccc2ccccc2n1	23.1	
CCOC(=O)c1[nH]c2cc(Cl)ccc2c1C=O	25.7	
CCOC(=O)c1[nH]c2cc(Cl)ccc2c1C#Cc1ccccc1	118	inhibition (Streptococcus pyogenes [2]): > 50%
O=Cc1c[nH]c2ccc(Cl)cc12	12.3	
CCOC(=O)c1c(C=O)c(C)n(-c2ccccc2)c1C	2.9	
O=Cc1ccc2[nH]ccc2c1	11.3	
O=C(O)CCC(=O)c1ccc2ccccc2c1	86.6	inhibition (Streptococcus pyogenes [2]): > 50%
O=Cc1c[nH]c2ccccc12	1.5	

SMILES	inhibition (Streptococcus pyogenes [1]) [%]	also measured
CC(=O)NCCc1c[nH]c2ccc(O)cc12	10.8	
COC(=O)c1cc2ccccc2[nH]1	5.1	
CCOC(=O)c1[nH]c2cc(Cl)ccc2c1N	12.8	
Cn1c2c(c3ccccc31)C(=O)NCC2	20.5	
Nc1ncccc1CO	-0.5	
Cn1c(=O)c2[nH]cnc2n(C)c1=O	2.3	
COc1cc(NS(=O)(=O)c2ccc(N)cc2)ncn1	12	
Nc1[nH]c2ccccc2c1C(=O)N1CCOCC1		inhibition (Streptococcus pyogenes [3]): inactive
Nc1[nH]c2cc(C(F)(F)F)ccc2c1C(=O)NC1CCCCC1	-6.3	
Nc1c(C(=O)NCC(O)c2ccccc2)cnn1-c1ccccc1 (stereo not drawn)	35.4	
c1ccc2c3c([nH]c2c1)CNCC3	10.1	
Nc1ccc(S(=O)(=O)Nc2ccccn2)cc1	3.8	
O=C(O)CCC(=O)c1cccs1	9.8	
O=C(O)Cc1c[nH]cn1	-7.6	
Oc1ccc2ncccc2c1	115	
Cn1c(C(=O)O)cc2ccccc21	8.2	
CCOC(=O)NCCc1c[nH]c2ccc(OC)cc12	11.7	
CC(C)NCC(O)COc1cccc2ccccc12 (stereo not drawn)	-4.2	
Nc1nccc(O)n1	14.5	
NCCc1c[nH]c2ccccc12	-5.3	
O=[N+]([O-])c1cccc2[nH]ccc12	21.2	
COc1ccc2[nH]cc(CCNC(C)=O)c2c1	16	
NNC(=O)c1ccnc(C(=O)NN)c1	3	
O=C(O)CCC(=O)c1c(C(=O)O)[nH]c2cc(Cl)ccc12	15.1	
